What was measured:
m17β-HSD2 = target: T1, m17β-HSD2 (Mus musculus, UniProt P51658); test: Inhibition of m17β-HSD2 in cell-free assay; assay type: biochemical; settings: for % inh. at 1 μM m17β-HSD2: mouse liver microsomal fraction, substrate E2 [500 nM], cofactor NAD+ [1500 μM], Table 1; for inhibition at 1 µM: read-out: % inh. at 1 μM m17β-HSD2
T1 construct: The microsomal fraction (m17β-HSD2) was obtained from mouse liver as described for h17β-HSD2; tissue Pharmacelsus GmbH (mouse livers); host or cells: mouse liver, microsomal fraction
T1 sequence (P51658 1-381): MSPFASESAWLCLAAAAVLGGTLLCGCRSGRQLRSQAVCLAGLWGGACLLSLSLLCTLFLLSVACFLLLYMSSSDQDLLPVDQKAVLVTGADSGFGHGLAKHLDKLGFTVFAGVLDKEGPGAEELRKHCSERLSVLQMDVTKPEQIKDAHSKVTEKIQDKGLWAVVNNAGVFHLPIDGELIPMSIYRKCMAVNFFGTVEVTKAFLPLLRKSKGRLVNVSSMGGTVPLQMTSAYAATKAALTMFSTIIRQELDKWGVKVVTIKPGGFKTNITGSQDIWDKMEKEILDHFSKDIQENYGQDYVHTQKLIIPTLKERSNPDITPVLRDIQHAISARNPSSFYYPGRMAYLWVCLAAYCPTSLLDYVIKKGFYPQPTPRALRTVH
Description: (§1) h17β-HSD2, h17β-HSD1, m17β-HSD2 and m17β-HSD1 cell-free assays were performed similarly, by incubating enzyme, tritiated substrate, cofactor and inhibitor, according to described procedures.
The microsomal fraction (m17β-HSD2) was obtained from mouse liver as described for h17β-HSD2. Inhibitory activities were evaluated by a method identical to the one described for the human enzyme.
(§2) Inhibitory activities were evaluated following an established method with minor modifications. Briefly, the enzyme preparation was incubated with NAD^+ [1500 μM] in the presence of potential inhibitors at 37C in a phosphate buffer (50 mM) supplemented with 20% of glycerol and EDTA 1mM. Inhibitor stock solutions were prepared in DMSO. Final concentration of DMSO was adjusted to 1% in all samples. […] After 20 min, the incubation was stopped with HgCl2 and the mixture was extracted with ether. After evaporation, the steroids were dissolved in acetonitrile/water (45:55). […] Detection and quantification of the steroids were performed using a radioflow detector (Berthold Technologies, Bad Wildbad). […] Each value was calculated from at least two independent experiments.

h17β-HSD2 = target: T2, h17β-HSD2 (Homo sapiens, UniProt P37059); test: Inhibition of h17β-HSD2 in cell-free assay; assay type: biochemical; set-up: from tissue; host or cells: human placenta, microsomal fraction; settings: for inhibition at 1 µM: read-out: % inh. at 1 μM h17β-HSD2; for s.f. (selectivity factor) = IC50(17β-HSD1)/IC50(17β-HSD2): human enzymes, cell-free
T2 sequence (P37059 1-387): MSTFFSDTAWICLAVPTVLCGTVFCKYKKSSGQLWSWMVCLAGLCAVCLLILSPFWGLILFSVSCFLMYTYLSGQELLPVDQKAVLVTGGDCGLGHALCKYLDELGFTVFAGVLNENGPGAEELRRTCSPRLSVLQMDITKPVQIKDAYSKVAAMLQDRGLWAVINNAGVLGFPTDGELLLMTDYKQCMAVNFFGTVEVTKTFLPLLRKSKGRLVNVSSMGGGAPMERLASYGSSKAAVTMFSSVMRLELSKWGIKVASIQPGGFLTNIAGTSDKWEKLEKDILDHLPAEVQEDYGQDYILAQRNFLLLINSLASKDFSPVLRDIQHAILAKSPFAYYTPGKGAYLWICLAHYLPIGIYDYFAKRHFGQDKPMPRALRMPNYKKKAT
Description: as §1
(§3) Cytosolic (h17β-HSD1) and microsomal (h17β-HSD2) fractions were obtained from human placenta according to previously described procedures. Fresh tissue was homogenized and the enzymes were separated from the mitochondria, cell membrane. Nucleus and other rests by fractional centrifugation at 1000 g, 10.000 g and 150.000 g. The pellet fraction containing the microsomal h17β-HSD2 was used for the determination of h17β-HSD2 inhibition, while h17β-HSD1 was obtained after precipitation with ammonium sulfate from the cytosolic fraction for use of testing of h17β-HSD1 inhibition. Aliquots containing h17β-HSD1 or h17β-HSD2 were stored frozen.
as §2

h17β-HSD1 = target: T3, h17β-HSD1 (Homo sapiens, UniProt P14061); test: Inhibition of h17β-HSD1 in cell-free assay; assay type: biochemical; settings: human placental cytosolic fraction, substrate E1 [500 nM], cofactor NADH [500 μM]; for inhibition at 1 µM: read-out: % inh. at 1 μM h17β-HSD1
T3 construct: h17β-HSD1 was obtained after precipitation with ammonium sulfate from the cytosolic fraction; from tissue; host or cells: human placenta, cytosolic fraction
T3 sequence (P14061 1-328): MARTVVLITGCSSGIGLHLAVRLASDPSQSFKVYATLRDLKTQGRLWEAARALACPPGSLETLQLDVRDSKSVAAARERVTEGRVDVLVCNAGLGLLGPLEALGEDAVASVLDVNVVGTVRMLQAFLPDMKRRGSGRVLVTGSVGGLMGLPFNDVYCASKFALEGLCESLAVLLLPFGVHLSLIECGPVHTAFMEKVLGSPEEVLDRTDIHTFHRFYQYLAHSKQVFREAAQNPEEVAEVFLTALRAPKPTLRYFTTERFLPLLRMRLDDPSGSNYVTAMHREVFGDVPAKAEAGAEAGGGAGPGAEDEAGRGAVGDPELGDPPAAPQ
Description: as §1, §3
(§4) The 17β-HSD1 inhibition assay was performed similarly to the h17β-HSD2 test. The human cytosolic enzyme was incubated with NADH [500 μM] while the mouse recombinant enzyme was reacted with NADPH [500 μM].Test compound and a mixture of unlabelled- and [^3H]-E1 (final concentration: 500 nM, 0.15 μCi) were added and mixed for 10 min at 37°C. Further treatment of the samples and HPLC separation was carried out as mentioned above for h17β-HSD2.

m17β-HSD1 = target: T4, m17β-HSD1 (Mus musculus, UniProt P51656); test: Inhibition of m17β-HSD1 in cell-free assay; assay type: biochemical; settings: recombinant m17β-HSD1, substrate E1 [500 nM], NADPH [500 μM]
T4 construct: host or cells: HEK 293 cells, transient transfection, 1000 g supernatant of the lysate
T4 sequence (P51656 1-344): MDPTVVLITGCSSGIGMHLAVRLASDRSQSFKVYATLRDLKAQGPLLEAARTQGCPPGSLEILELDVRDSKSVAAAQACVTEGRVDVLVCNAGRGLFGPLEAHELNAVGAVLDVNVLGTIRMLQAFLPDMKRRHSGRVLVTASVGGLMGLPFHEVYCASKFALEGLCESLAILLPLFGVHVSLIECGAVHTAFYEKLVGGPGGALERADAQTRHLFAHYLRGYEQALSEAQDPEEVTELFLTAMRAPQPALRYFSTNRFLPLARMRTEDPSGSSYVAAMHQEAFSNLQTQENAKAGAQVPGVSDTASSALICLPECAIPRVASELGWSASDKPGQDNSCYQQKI
Description: as §1
Recombinant m17β-HSD1 enzyme was produced by transfection of HEK 293 cells with a m17β-HSD1 expression plasmid (coding sequence of NM_010475 in pCMV6Entry vector, OriGene Technologies, Inc.) according to a described procedure. 48 hours after transfection cells were homogenized by sonication (3 x 10 s) in a buffer containing saccharose (40 mMTris, 250 mM saccharose, 5 mM EDTA, 7 mM DTT, 1 mM PMSF, pH 7,5). Cell lysate was centrifuged (1000 g, 15 min, 4°C) and 20% glycerol was added to the supernatant before aliquots were frozen and stored at -70°C.
as §4

Row | Structure (SMILES) | % inh. at 1 μM m17β-HSD2 (m17β-HSD2) | inhibition at 1 µM (m17β-HSD2) | inhibition at 1 µM (h17β-HSD2) | inhibition at 1 µM (h17β-HSD1) | further results
1 | COc1ccc(-c2cccc(C(=O)N(C)c3cccc(OC)c3)c2)cc1 [Compound 4b] | 11% |  |  |  | 
2 | COc1cccc(N(C)C(=O)c2ccc(-c3ccccc3OC)s2)c1 [Compound 1d] | 19% |  |  |  | 
3 | Cc1cccc(-c2ccc(C(=O)N(C)c3cccc(C)c3)cc2)c1 [Compound 3a] |  | 50% |  |  | 
4 | COc1cccc(N(C)C(=O)c2ccc(-c3ccc(OC)c(OC)c3)cc2)c1 [Compound 16a, 3',4'-Dimethoxy-N-(3-methoxyphenyl)-N-methyl-[1,1'-biphenyl]-4-carboxamide] |  | 52% |  |  | IC50 (h17β-HSD2): 520 nM; s.f. (selectivity factor) = IC50(17β-HSD1)/IC50(17β-HSD2) (h17β-HSD2): 164; melting point: 153 to 156 °C; IC50 (h17β-HSD1): 85.5 µM
5 | Cc1cccc(-c2ccc(C(=O)N(C)c3cccc(C)c3)s2)c1 [Compound 1b] | 42% |  |  |  | 
6 | COc1cccc(N(C)C(=O)c2ccc(-c3cccc(F)c3)cc2)c1 [Compound 13a, 3'-Fluoro-N-(3-methoxyphenyl)-N-methyl-[1,1'-biphenyl]-4-carboxamide] |  | 57% |  |  | IC50 (h17β-HSD2): 1000 nM; s.f. (selectivity factor) = IC50(17β-HSD1)/IC50(17β-HSD2) (h17β-HSD2): 8; melting point: 97 to 100 °C; IC50 (h17β-HSD1): 8 µM
7 | COc1cccc(N(C)C(=O)c2ccc(-c3cccc(N(C)C)c3)cc2)c1 [Compound 15a, 3'-(Dimethylamino)-N-(3-methoxyphenyl)-N-methyl-[1,1'-biphenyl]-4-carboxamide] |  | 67% |  |  | IC50 (h17β-HSD2): 650 nM; s.f. (selectivity factor) = IC50(17β-HSD1)/IC50(17β-HSD2) (h17β-HSD2): 8; inhibition of m17β-HSD1 at 1 μM (m17β-HSD1): None of the tested compounds showed any inhibition; IC50 (h17β-HSD1): 5 µM
8 | COc1cccc(N(C)C(=O)c2ccc(-c3cccc(F)c3)s2)c1 [Compound 1h] | n.i. (n.i.: no inhibition, i.e., inhibition ≤10%) |  |  |  | 
9 | CN(C(=O)c1cccc(-c2cccc(O)c2)c1)c1cccc(O)c1 [Compound 4c] | n.i. (n.i.: no inhibition, i.e., inhibition ≤10%) |  |  |  | 
10 | COc1cccc(CN(C)C(=O)c2cccc(-c3cccc(OC)c3)c2)c1 [Compound 4d] | n.i. (n.i.: no inhibition, i.e., inhibition ≤10%) |  |  |  | 
11 | COc1cccc(N(C)C(=O)c2ccc(-c3ccc(C#N)cc3)s2)c1 [Compound 1i] | n.i. (n.i.: no inhibition, i.e., inhibition ≤10%) |  |  |  | 
12 | CN(C(=O)c1ccc(-c2ccccc2O)s1)c1cccc(O)c1 [Compound 1f] | 18% |  |  |  | 

Further lines, with some results ahead:

Row | % inh. at 1 μM m17β-HSD2 (m17β-HSD2) | inhibition at 1 µM (m17β-HSD2) | inhibition at 1 µM (h17β-HSD2) | inhibition at 1 µM (h17β-HSD1) | Structure (SMILES) | further results
13 | 22% |  |  |  | CN(Cc1cccc(O)c1)C(=O)c1cccc(-c2ccc(O)cc2)c1 [Compound 4f] | 
14 |  |  | 11% | < 10% | COc1cccc(C(=O)N(C)c2ccc(-c3cccc(OC)c3)cc2)c1 [Compound 24a, 3-Methoxy-N-(3'-methoxy-[1,1'-biphenyl]-4-yl)-N-methylbenzamide] | 
15 |  |  | 31% | < 10% | COc1cccc(N(C)C(=O)c2ccc(-c3ccc(F)c(F)c3)cc2)c1 [Compound 18a, 3',4'-Difluoro-N-(3-methoxyphenyl)-N-methyl-[1,1'-biphenyl]-4-carboxamide] | 
16 |  | 58% | 27% | < 10% | COc1ccc(N(C)C(=O)c2ccc(-c3cccc(OC)c3)cc2)cc1 [Compound 11a, 3'-Methoxy-N-(4-methoxyphenyl)-N-methyl-[1,1'-biphenyl]-4-carboxamide] | 
17 |  | 56% | 51% | < 10% | COc1cccc(N(C)C(=O)c2ccc(-c3ccc4c(c3)OCO4)cc2)c1 [Compound 22a, 4-(Benzo[d][1, 3]dioxol-5-yl)-N-(3-methoxyphenyl)-N-methylbenzamide] | melting point: 139 to 141 °C
18 |  | 33% | 50% | < 10% | COc1cccc(N(C)C(=O)c2ccc(-c3ccccc3OC)cc2)c1 [Compound 9a, 2'-Methoxy-N-(3-methoxyphenyl)-N-methyl-[1,1'-biphenyl]-4-carboxamide] | 
19 |  | 62% | 19% | < 10% | COc1ccc(-c2ccc(C(=O)N(C)c3ccc(OC)cc3)cc2)cc1 [Compound 12a, 4'-Methoxy-N-(4-methoxyphenyl)-N-methyl-[1,1'-biphenyl]-4-carboxamide] | melting point: 129 to 132 °C
20 |  | 42% | 36% | 15% | CN(C(=O)c1ccc(-c2cccc(O)c2)cc1)c1cccc(O)c1 [Compound 7, 3'-Hydroxy-N-(3-hydroxyphenyl)-N-methyl-[1,1'-biphenyl]-4-carboxamide] | melting point: 168 to 171 °C
21 |  | 48% | 51% | 22% | COc1cccc(N(C)C(=O)c2ccc(-c3ccccc3)cc2)c1 [Compound 8a, N-(3-methoxyphenyl)-N-methyl-[1,1'-biphenyl]-4-carboxamide] | melting point: 102 to 104 °C

Source: PMC4521925, “17β-Hydroxysteroid Dehydrogenase Type 2 Inhibition: Discovery of Selective and Metabolically Stable Compounds Inhibiting Both the Human Enzyme and Its Murine Ortholog” (PLoS ONE, 2015)
